Assay results from article PMC12213745, “Compounds from Cyclocarya paliurus leaves inhibit binary division of methicillin-resistant Staphylococcus aureus by disrupting FtsZ dynamic” (Frontiers in Microbiology, 2025).
pKd: −log10 of the molar value. ≈ marks a conversion by molar mass, not a printed value. Where “and” joins values, the source holds several entries; their conditions need not be identical. Equal entries are not always repeated. Where two headings read alike, the source gives them in different places.

Legend:
[1] = test system: MRSA-4; test: MIC, broth microdilution (CLSI); assay type: cell-based, Methicillin-resistant S. aureus; details: Staphylococcus aureus
From the text: Staphylococcus aureus ATCC25923 and Escherichia coli ATCC25922 were obtained from the American Type Culture Collection (ATCC, Manassas, VA, USA). The Methicillin-resistant S. aureus (MRSA) clinical isolate MRSA-4, previously confirmed as mecA-positive and characterized for its antibiotic resistance profile ([Sun et al., 2023]), was used in this study. Staphylococcus epidermidis (GDMCC 1.143), Enterococcus faecalis (GDMCC 1.164), and Salmonella enterica subsp. enterica (GDMCC 1.1114) were obtained from the Guangdong Microbial Culture Collection Center (GDMCC, Guangzhou, China). The Pseudomonas aeruginosa PA14 strain was kindly provided by Professor Min Wu (Southwest Medical University, China). All bacterial strains were routinely cultured in Mueller-Hinton broth (MHB) or Luria-Bertani (LB) broth medium at 37°C with shaking at 200 rpm. Vancomycin was purchased from Solarbio Science & Technology Co., Ltd. (Beijing, China), and oxacillin was obtained from Taiji Group Hengsheng Pharmaceutical Co., Ltd. (Chengdu, China). The polyclonal rabbit primary anti-body to FtsZ was purchased from Abcam PLC (Cambridge, UK). Alexa488-conjugated goat anti-rabbit IgG was purchased from ZSGB-BIO Biotechnology (Beijing, China). DAPI staining solution was purchased from Beyotime Biotechnology (Shanghai, China).
The minimum inhibitory concentrations (MICs) of the test compounds (AA, MA, and UA) were determined using the standard broth microdilution method in accordance with the Clinical and Laboratory Standards Institute (CLSI) guidelines ([Humphries et al., 2021]). Bacteria were cultured in MHB or LB broth at 37°C with shaking (200 rpm) to the logarithmic phase, then diluted to a final density of 1 × 10^6 CFU/mL. Test compounds (dissolved in DMSO) and positive controls (vancomycin and oxacillin) were diluted in MHB and serially twofold diluted in 96-well plates. Each well was inoculated with 100 μL of bacterial suspension (1 × 10^6 CFU/mL), yielding a final bacterial density of 5 × 10^5 CFU/mL and a total volume of 200 μL. The final concentrations tested were 128 to 1 μg/mL for AA, MA, and UA; 16 to 0.5 μg/mL for vancomycin; and 64 to 0.0625 μg/mL for oxacillin. DMSO was used as a solvent control. Plates were incubated statically at 37°C for 18–24 h. After incubation, the OD600 was measured using a microplate reader (SpectraMax i3x, Molecular Devices, CA, USA). The MIC was defined as the lowest compound concentration that caused ≥ 90% inhibition of bacterial growth compared to the drug-free growth control. All tests were performed in three independent biological replicates.
Following the isolation and identification of AA, MA, and UA from ECPL, we evaluated their antibacterial activity and spectrum. The MICs of the compounds were determined against MRSA-4, S. aureus ATCC25923, S. epidermidis, and E. faecalis (Gram-positive), as well as P. aeruginosa PA14, E. coli ATCC25922, and S. enterica subsp. Enterica (Gram-negative) using the standard broth microdilution method in accordance with CLSI guidelines ([Humphries et al., 2021]).

[2] = test system: MRSA-4; test: SIM analysis of Z-ring assembly (FtsZ immunostaining); assay type: cell-based, Methicillin-resistant S. aureus; details: 1 × MIC, 4 h
Description: MRSA-4 was cultured in MHB at 37°C to mid-logarithmic phase and subsequently treated with AA, MA, or UA at concentration of 1 × MIC, or with PBS as a control, for 4 h at 37°C. Following treatment, cells were harvested by centrifugation, washed once with PBS, and fixed with 4% (w/v) paraformaldehyde in PBS for 15 min at room temperature. Fixed cells were then washed twice with PBS. The pellets were resuspended in 90 μL GTE buffer (50 mM glucose, 25 mM Tris–HCl, pH 8.0, 10 mM EDTA) containing 10 μL lysozyme (3 mg/mL) and incubated for 3 min at room temperature. The suspension was applied onto poly-L-lysine-coated glass slides and allowed to adhere. After removing excess liquid, the slides were blocked with PBS containing 2% (w/v) BSA and 0.1% (v/v) Tween-20 for 15 min. Slides were incubated overnight at 4°C with polyclonal rabbit anti-FtsZ primary antibody, followed by three washes with PBST (PBS containing 0.1% Tween-20). Alexa Fluor 488-conjugated goat anti-rabbit IgG as the secondary antibody was then applied and incubated for 1 h at room temperature in the dark. After washing, nuclei were stained with DAPI for 3–5 min, followed by 2–3 times PBS washes to remove excess stain. Coverslips were mounted with 50% (v/v) glycerol in PBS and sealed with nail polish. Z-ring structures were visualized using structured illumination microscopy (N-SIM S, Nikon, Tokyo, Japan).
Given that septum formation is orchestrated by the FtsZ-based Z-ring, we next examined whether AA, MA, and UA affect Z-ring assembly. Structured illumination microscopy (SIM) was employed to visualize FtsZ localization in MRSA-4 cells treated with each compound at 1 × MIC for 4 h.

[3] = target: T1, SaFtsZ (Staphylococcus aureus, UniProt P0A031); test: Surface plasmon resonance analysis; assay type: binding, S. aureus; details: SPR, immobilized SaFtsZ, 25°C, steady-state
T1 construct: purchased Cytoskeleton, Inc. FTZ02
T1 sequence (P0A031 1-390): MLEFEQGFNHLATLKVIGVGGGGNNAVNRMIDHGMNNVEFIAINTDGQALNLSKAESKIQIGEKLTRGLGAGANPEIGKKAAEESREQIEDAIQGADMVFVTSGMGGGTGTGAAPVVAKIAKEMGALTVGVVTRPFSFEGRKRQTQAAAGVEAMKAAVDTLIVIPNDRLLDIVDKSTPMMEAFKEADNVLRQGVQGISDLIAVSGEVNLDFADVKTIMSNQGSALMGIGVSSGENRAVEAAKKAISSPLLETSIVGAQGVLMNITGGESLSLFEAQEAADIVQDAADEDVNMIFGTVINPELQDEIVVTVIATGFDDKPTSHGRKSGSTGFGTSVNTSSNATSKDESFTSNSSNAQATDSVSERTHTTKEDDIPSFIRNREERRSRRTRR
Description: SPR analysis was performed using a Biacore X100 system (Cytiva, USA) equipped with a CM5 sensor chip at 25°C. SaFtsZ protein was immobilized onto the chip surface via standard amine coupling. Briefly, flow cells 1 (Fc1) and 2 (Fc2) were activated with a 1:1 mixture of 0.4 M EDC and 0.1 M NHS for 7 min. The SaFtsZ protein was diluted to 40 μg/mL in 0.1 M sodium acetate buffer (pH 4.0) and immobilized onto Fc2. The response units (RU) reaching an immobilization level of approximately 4693.2. Unreacted sites in both flow cells were blocked with ethanolamine for 7 min. Subsequently, analyte solutions containing test compounds at varying concentrations were injected over both flow cells, and binding responses were monitored in real time. Data analysis was performed using Biacore Evaluation Software v2.0.2.
We first performed SPR spectroscopy to experimentally measure the binding affinities of AA, MA, and UA for immobilized SaFtsZ protein.

[4] = MRSA-4, ≥ 90% growth inhibition, 18–24 h, read-out: MIC
[5] = read-out: equilibrium dissociation constant (Kd)

Q: For C[C@H]1[C@H](C)CC[C@]2(C(=O)O)CC[C@]3(C)C(=CC[C@@H]4[C@@]5(C)C[C@@H](O)[C@H](O)[C@@](C)(CO)[C@@H]5CC[C@]43C)[C@H]12 [AA, asiatic acid], which MIC [1, 4] is on record?
A: 32 µg/mL (≈ 65.5 µM)

Q: And the “FtsZ localization / Z-ring formation (SIM)” value [2]?
A: aberrant FtsZ localization

Q: And the pKd ([3]; equilibrium dissociation constant (Kd))?
A: 5.62

Q: Which results are given for CC1(C)CC[C@]2(C(=O)O)CC[C@]3(C)C(=CC[C@@H]4[C@@]5(C)C[C@@H](O)[C@H](O)C(C)(C)[C@@H]5CC[C@]43C)[C@@H]2C1 [MA, maslinic acid]?
A: MIC ([1]; MRSA): 32 µg/mL (≈ 67.7 µM); FtsZ localization / Z-ring formation (SIM) [2]: aberrant FtsZ localization; pKd [3, 5]: 5.01

Q: How did the MIC [1, 4] turn out when C[C@H]1[C@H](C)CC[C@]2(C(=O)O)CC[C@]3(C)C(=CC[C@@H]4[C@@]5(C)CC[C@H](O)C(C)(C)[C@@H]5CC[C@]43C)[C@H]12 [UA, ursolic acid] was run?
A: 8 µg/mL (≈ 17.5 µM)

Q: And the “FtsZ localization / Z-ring formation (SIM)” value [2]?
A: aberrant FtsZ localization

Q: What about the pKd [3, 5] of the same molecule?
A: 6.15 and 6.18
